Measured values from PubChem BioAssay AID686920 (Broad Institute, 2013).

System: A673 NR0B1-luciferase reporter, viability-normalised luminescence
Test: suppressors of NR0B1-promoter luciferase reporter, dose response, EWS/Fli inhibitor project, luciferase luminescence, A673 cells, cherry-pick (AID 686920)

| Compound | AC35 [µM] |
| --- | --- |
| C[C@@H]1CN([C@@H](C)CO)C(=O)c2cc(NC(=O)Nc3ccccc3)ccc2O[C@@H]1CN(C)Cc1ccc(C(=O)Nc2ccccc2N)cc1 | 5.75 |
| CC(C)(C)c1ccc(Cn2c(=O)cnc3ccccc32)cc1 | 13.2 |
| Cc1ccc2oc(/N=C(\N)NC(=O)C(C)(C)C)nc2c1 | 0.18 |
| C[C@H]1CN([C@@H](C)CO)C(=O)c2cccc(NC(=O)c3ccc(-c4nccs4)cc3)c2O[C@@H]1CN(C)Cc1ccc(C(=O)Nc2ccccc2N)cc1 | 14.1 |
| COC(=O)C1=C(C)N(Cc2cccc(C(F)(F)F)c2)C(=NCc2ccc(OC)cc2)NC1c1cccc(F)c1 (configuration not stated) | 13.2 |
| O=C1C(=O)N(CCS(=O)(=O)c2ccccc2)c2ccccc21 | 20.7 |
| O=C(Nc1ccc(OC(=O)N2CCCCC2)cc1)N1CCOCC1 | 4.3 |
| C[C@@H]1CN([C@@H](C)CO)C(=O)c2cccc(NC(=O)CCCCCC(=O)Nc3ccccc3N)c2O[C@@H]1CN(C)Cc1ccc(Oc2ccccc2)cc1 | 6.74 |
| C=C1C(=O)OC2C1CCC(C)C1(O)C=CC(=O)C21C (configuration not stated) | 11.5 |
| COc1ccc(Nc2ncnc3ccc(Br)cc23)c(OC)c1 | 5.94 |
| CN=c1scc(-c2cccs2)n1/N=C/c1ccccc1O | 0.298 |
| Cc1cccc(NC(=O)CN2CCN(C(=O)CNC(=O)c3ccc(-c4ccccc4)cc3)CC2)c1C | 8.14 |
| Cc1ccc(S(=O)(=O)N(C)C[C@H]2Oc3c(cccc3N(C)C)C(=O)N([C@@H](C)CO)C[C@@H]2C)cc1 | 1.62 |
| Cc1cc(-c2nc3cc(F)ccc3s2)ccc1N | 8.89 |
| COc1ccc(/C=C2\SC(=O)N(CCCC(=O)Nc3cc(Cl)ccc3C(=O)O)C2=O)cc1 | 0.169 |
| COc1ccc(-c2sc3ccccc3c2-c2ccc(OCCN3CCCCC3)cc2)cc1 | 7.87 |
| C[C@H](CO)N1C[C@H](C)[C@H](CN(C)Cc2ccc(C(=O)Nc3ccccc3N)cc2)Oc2ccc(N(C)C)cc2C1=O | 11.7 |
| Cc1cccc(N2CCN(C3C(=O)Nc4ccccc4-n4nnnc43)CC2)c1C (configuration not stated) | 9.29 |
| N#C[C@H]1[C@H](c2ccc(C#Cc3ccccc3F)cc2)[C@@H](CO)N1C(=O)C1CCCCC1 | 19.5 |
| O=C(C1CC1)N1C[C@@H]2N[C@H](C1)C2c1ccc(/C=C/c2ccccc2)cc1 (some centres not stated) | 26.1 |
| CC(C)(C)C(=O)Nc1ccc(N=Nc2ccccc2)cc1 | 10.7 |
| CNC[C@H](CC1CCCCC1)NC[C@H](CO)NCCc1cccc(C(F)(F)F)c1 | 13.7 |
| O=c1ccc2[n+]([O-])c3ccc(O)cc3oc-2c1 | 3.7 |

| Compound | AC35 [µM] |
| --- | --- |
| N#C[C@@H]1[C@H](c2ccc(C#Cc3cccc(F)c3)cc2)[C@@H](CO)N1C(=O)C1CCCC1 | 4.38 |
| CC(=O)OC1CC(OC2C(O)CC(OC3C(O)CC(OC4CCC5(C)C(CCC6C5CC(O)C5(C)C(C7=CC(=O)OC7)CCC65O)C4)OC3C)OC2C)OC(C)C1OC1OC(CO)C(O)C(O)C1O (configuration not stated) | 0.225 |
| C=C1C(=O)OC2C1CCC(C)C1C=CC(=O)C12C (configuration not stated) | 15.5 |
| O=C(CCCN1C(=O)/C(=C/c2ccccc2Cl)SC1=S)NNC(=O)c1ccc(Cl)cc1 | 8.68 |
| N#CC1C=Cc2c(ccc3ccccc23)N1C(=O)c1ccccc1 (configuration not stated) | 0.692 |
| Cc1ccc(C)c(S(=O)(=O)N2CCN(c3ncnc4sccc34)CC2)c1 | 3.63 |
| C[C@H]1O[C@@H](O[C@H]2[C@@H](O)C[C@H](O[C@H]3[C@@H](O)C[C@H](O[C@H]4CC[C@@]5(C)[C@H](CC[C@@H]6[C@@H]5C[C@@H](O)[C@]5(C)[C@@H](C7=CC(=O)OC7)CC[C@]65O)C4)O[C@@H]3C)O[C@@H]2C)C[C@H](O)[C@@H]1O | 0.0886 |
| CCc1nc(N)nc(N)c1-c1ccc(Cl)c(N=[N+]=[N-])c1 | 6.23 |
| COC(=O)C[C@H]1CC[C@H]2[C@H](COc3ccc(NC(=O)Nc4cccc(Cl)c4)cc3C(=O)N2C)O1 | 44.1 |
| COc1ccccc1C(CCNCc1ccc(N(C)C)cc1)c1ccc(OC(C)C)cc1 (configuration not stated) | 24.9 |
| CC(=O)c1ccc(N=Nc2ccc(C)cc2)cc1 | 8.92 |
| CC(C)CC(NC(=O)c1cccs1)c1nnc(SCc2ccc(Cl)c(Cl)c2)n1C (configuration not stated) | 39.5 |
| COC(=O)Cc1[nH]n(-c2nc3ccccc3s2)c(=O)c1C(C)=Nc1ccc(OC)cc1 | 4.31 |
| Cc1ccc(C(C)C)c(OCc2ccc(C(=O)N/N=C/c3ccc(O)cc3O)cc2)c1 | 1.46 |
| COc1ccc(NC(=O)N2CCCCN3[C@@H](CO)[C@H](c4ccc(C5=CCCCC5)cc4)[C@@H]3C2)cc1 | 15.8 |
| C[C@@H]1CCCCO[C@H](CN(C)Cc2ccc(C(F)(F)F)cc2)[C@H](C)CN([C@H](C)CO)C(=O)c2cc(NC(=O)CCCN(C)C)ccc2O1 | 11.9 |
| COc1ccc(NC(=O)N(C)[C@H]2C[C@H]3c4[nH]c5ccccc5c4CCN3C(=O)[C@H]2CO)cc1 | 12 |
| OC[C@H]1O[C@@H](n2cnc3c(NCc4ccco4)ncnc32)[C@H](O)[C@@H]1O | 4.99 |
| Cc1csc(NC(=O)CCc2c(C)nc3cc(-c4ccc(Cl)cc4)nn3c2C)n1 | 0.284 |
| Cc1ccc2nc(-c3ccccc3)nn2c1 | 4.49 |
| COc1ccc(C=C2CCc3ccccc3C2=O)cc1 | 10.4 |
| COC1C(O)C(C)OC(OC2CCC3(C)C(CCC4C3C(O)CC3(C)C(C5=CC(=O)OC5)CCC43O)C2)C1O (configuration not stated) | 0.183 |
| OCC1OC(n2ccc3c2ncn2ncnc32)C(O)C1O (configuration not stated) | 1.01 |

| Compound | AC35 [µM] |
| --- | --- |
| C[C@H](CO)N1C[C@H](C)[C@@H](CN(C)Cc2ccc(Oc3ccccc3)cc2)Oc2ccc(NS(=O)(=O)c3ccc(Cl)cc3)cc2CC1=O | 22.8 |
| CC(=NNc1ccc2ccccc2n1)c1ccccn1 | 0.597 |
| C[C@@H]1CN([C@H](C)CO)C(=O)c2cc(NC(=O)CCCCCC(=O)Nc3ccccc3N)ccc2O[C@H]1CN(C)S(=O)(=O)c1ccc(Cl)cc1 | 35.2 |
| CN(C)c1ccc2c(c1)[C@@H]1C[C@@H](CC(=O)NCc3ccc(Oc4ccccc4)cc3)O[C@H](CO)[C@@H]1O2 | 5.8 |
| COc1ccc(OC)c(Cc2cnc3nc(N)nc(N)c3c2C)c1 | 0.0922 |
| O=C1/C(=C\c2ccccc2)CN(C(=O)CCN2CCCCC2)C/C1=C/c1ccccc1 | 2.54 |
| COc1ccc(NC(=O)c2cc3ccccc3oc2=O)cc1 | 2.99 |
| Cc1nn(Cc2ccccc2Cl)c2sc(C(=O)Nc3ccccc3N3CCOCC3)cc12 | 10.3 |
| CCOc1cc2[nH]c(=S)n(Cc3ccc(C(=O)NCCN(CC)CC)cc3)c(=O)c2cc1OCC | 31.1 |
| CO[C@H]1CN(C)C(=O)c2cc(NC(=O)NC(C)C)ccc2OC[C@H](C)N(Cc2ccc(-c3ccccn3)cc2)C[C@@H]1C | 5.22 |
| C/C(=C\c1ccccc1)C(=O)N1CCC=CC1=O | 10.3 |
| N#C[C@H]1[C@H](c2ccc(C#Cc3ccccc3F)cc2)[C@@H](CO)N1C(=O)C1CCOCC1 | 34 |
| CN(C)c1ccc(/C=N/Nc2nc3ccccc3o2)cc1 | 5.35 |
| CCCCCCCCCCCCCCCCn1cc[n+](C)c1 | 10.3 |
| C(=N\Nc1ccc2ccccc2n1)/c1ccc2c(c1)OCO2 | 5.76 |
| CC(=O)c1ccc(N=C2C(=O)Nc3ccccc32)cc1 | 19.3 |
| CCCN1C(=O)/C(=C/c2nc3ccccc3c(=O)[nH]2)c2ccccc21 | 32.5 |
| Nc1ccc2oc(-c3cc(Br)ccc3Cl)nc2c1 | 15 |
| CCCCNC(=O)C(c1ccc(OCC(=O)OC)c(C(=O)OC)c1)N(CCOC)C(=O)CCCCCN1C(=O)NC(c2ccc(-c3ccccc3)cc2)C(C(=O)OCc2ccccc2)=C1C (configuration not stated) | 40.4 |
| Cc1ccc(C(=O)O/N=C(\N)c2ccccn2)cc1 | 9.92 |
| C[C@H]1CN([C@@H](C)CO)C(=O)c2cc(NS(=O)(=O)c3ccc(Cl)cc3)ccc2O[C@H]1CN(C)Cc1ccc(Cl)c(Cl)c1 | 40.5 |
